± gives the expanded uncertainty stated by the source.
Assay: xn = mol fraction of the nth substance listed
Settings: 101 kPa, Liquid; for mass density: Vibrating tube method; for speed of sound: fixed-path interferometer; for viscosity: Capillary tube (Ostwald / Ubbelohde) method

CCCCOCCO [2-butoxyethan-1-ol] + CCCCCCCCO
Settings | mass density, 293.15 K [kg/m3] | mass density, 298.15 K [kg/m3] | mass density, 303.15 K [kg/m3] | speed of sound, 293.15 K [m/s] | speed of sound, 298.15 K [m/s] | viscosity, 298.15 K [mPa·s] | viscosity, 303.15 K [mPa·s]
x1 = 0.053 | 828.488 ± 0.24 | 825.018 ± 0.24 | 821.521 ± 0.24 | 1361.8 ± 1.6 | 1344.8 ± 1.6 | 6.97 ± 0.15 | 5.789 ± 0.13
x1 = 0.1049 | – | – | – | – | – | 6.636 ± 0.15 | 5.499 ± 0.12
x1 = 0.105 | 831.623 ± 0.24 | 828.108 ± 0.24 | 824.6 ± 0.24 | 1359 ± 1.6 | 1342.1 ± 1.6 | – | –
x1 = 0.167 | 835.443 ± 0.24 | 831.899 ± 0.24 | 828.337 ± 0.24 | 1355.4 ± 1.6 | 1338.4 ± 1.6 | 6.076 ± 0.13 | 5.128 ± 0.11
x1 = 0.2004 | 837.529 ± 0.24 | 833.978 ± 0.24 | 830.387 ± 0.24 | 1353.2 ± 1.6 | 1336.4 ± 1.6 | 5.882 ± 0.13 | 4.946 ± 0.11
x1 = 0.2561 | 841.092 ± 0.24 | 837.535 ± 0.24 | 833.89 ± 0.24 | 1350.3 ± 1.6 | 1333.4 ± 1.6 | 5.471 ± 0.12 | 4.656 ± 0.1
x1 = 0.3039 | 844.242 ± 0.24 | 840.656 ± 0.24 | 836.962 ± 0.24 | 1347.8 ± 1.6 | 1330.9 ± 1.6 | 5.254 ± 0.12 | 4.44 ± 0.098
x1 = 0.4046 | 851.133 ± 0.24 | 847.482 ± 0.24 | 843.721 ± 0.24 | 1342.7 ± 1.6 | 1325.9 ± 1.6 | 4.678 ± 0.1 | 4.001 ± 0.088
x1 = 0.5013 | 858.109 ± 0.24 | 854.363 ± 0.24 | – | 1338.2 ± 1.6 | 1321.3 ± 1.6 | 4.286 ± 0.094 | 3.647 ± 0.08
x1 = 0.6004 | 865.629 ± 0.24 | 861.773 ± 0.24 | – | 1334 ± 1.6 | 1316.9 ± 1.5 | 3.885 ± 0.086 | 3.31 ± 0.073
x1 = 0.7009 | 873.666 ± 0.24 | 869.705 ± 0.24 | – | 1330.3 ± 1.6 | 1313.2 ± 1.5 | 3.588 ± 0.079 | 3.045 ± 0.067
x1 = 0.8027 | 882.262 ± 0.24 | 878.21 ± 0.24 | – | 1327 ± 1.6 | 1310 ± 1.5 | 3.287 ± 0.072 | 2.825 ± 0.062
x1 = 0.852 | 886.596 ± 0.24 | 882.514 ± 0.24 | – | 1325.6 ± 1.6 | 1308.5 ± 1.5 | 3.165 ± 0.069 | 2.734 ± 0.06
x1 = 0.9007 | 891.001 ± 0.24 | 886.89 ± 0.24 | – | 1324.4 ± 1.6 | 1307.5 ± 1.5 | 3.04 ± 0.066 | 2.661 ± 0.058
x1 = 0.9512 | 895.736 ± 0.24 | 891.594 ± 0.24 | – | 1323.4 ± 1.6 | 1306.5 ± 1.5 | 2.901 ± 0.062 | 2.636 ± 0.057

From the NIST ThermoML archive (doi:10.1016/j.jct.2013.04.021)
